Results published in patent publication US4368199A, “Novel derivatives of 3,4,5-trimethoxy cinnamoyl piperazine, their salts, the process for preparing the same and their application in therapeutics” (Delalande S.A., priority 1980, dated 1983).
Where a name gives a salt, the structure may show the parent alone. Read-outs that look alike come from different tables or passages of the source.

Key:
dogs = experiment: Haemodynamic tests on dogs anaesthetized with sodic pentobarbital (arterial pressure, cardiac frequency, coronary flow, cardiac contractile force); format: in vivo; settings: dog; for change in vivo at 0.625 mg/kg / change in vivo at 2.5 mg/kg: Canis lupus familiaris, iv
Method: Tests were carried out on dogs anaesthetized with sodic pentobarbital (30 mg/kg/i.v.) and the compounds of formula (I) were administered intravenously. The activity on the cardiac contractile force was measured with a BRODIE and WALTON stress gauge fixed to the left ventricle.
The arterial pressure was measured at the femoral artery with a SANBORN pressure sensor.
The cardiac frequency was automatically counted by means of a cardiotachymeter from the pulse pressure wave.
The coronary flow was measured by means of an electromagnetic probe of the STATHAM or BIOTRONEX type at the coronary artery.

[1] = Acute toxicity in the mouse (MILLER and TAINTER method); settings: in vivo; for LD50: read-out: LD 50 (mouse)
Method: The acute toxicity was assessed in accordance with the MILLER and TAINTER method (Proc. Sci. Exp. Biol. Med. 1944, 57, 261)

[2] = 0.625 mg/kg/i.v., read-out: Increase of the cardiac contractile force
[3] = 0.625 mg/kg/i.v., read-out: Increase of the coronary flow
[4] = 0.625 mg/kg/i.v., read-out: Variation of the average arterial pressure
[5] = 0.625 mg/kg/i.v., read-out: Variation of the cardiac frequency
[6] = 2.5 mg/kg/i.v., read-out: Increase of the cardiac contractile force
[7] = 2.5 mg/kg/i.v., read-out: Increase of the coronary flow
[8] = 2.5 mg/kg/i.v., read-out: Variation of the average arterial pressure
[9] = 2.5 mg/kg/i.v., read-out: Variation of the cardiac frequency
[10] = po, at 1000 mg/kg, read-out: LD 50 column: percentage in parentheses (p.o.)

SMILES: COc1cc(C=CC(=O)N2CCN(CC(=O)c3ccc(OC)c(OC)c3OC)CC2)cc(OC)c1OC [Compound 7]
- change in vivo at 0.625 mg/kg (dogs; [2]): 69%
- change in vivo at 0.625 mg/kg (dogs; [3]): 277%
- change in vivo at 0.625 mg/kg (dogs; [4]): -22%
- change in vivo at 0.625 mg/kg (dogs; [5]): -2 to 15%
- change in vivo at 2.5 mg/kg (dogs; [6]): 51%
- change in vivo at 2.5 mg/kg (dogs; [7]): 416%
- change in vivo at 2.5 mg/kg (dogs; [8]): -35%
- change in vivo at 2.5 mg/kg (dogs; [9]): -8 to 9%
- Increase of the coronary flow: duration (dogs; 0.625 mg/kg/i.v.): < 5 mn
- Increase of the cardiac contractile force: duration (dogs; 2.5 mg/kg/i.v.): < 10 mn
- Increase of the coronary flow: duration (dogs; 2.5 mg/kg/i.v.): < 20 mn
- mortality [1, 10]: 0%

SMILES: COc1ccc(C(O)CN2CCN(C(=O)C=Cc3cc(OC)c(OC)c(OC)c3)CC2)c(OC)c1 (stereo not shown) [Compound 89]
- change in vivo at 2.5 mg/kg (dogs; [6]): 51%
- change in vivo at 2.5 mg/kg (dogs; [8]): -38%
- change in vivo at 2.5 mg/kg (dogs; [9]): -10%
- Variation of the average arterial pressure: duration (dogs; 2.5 mg/kg/i.v.): > 30 mn
- LD50 ([1]; iv): > 100 mg/kg

SMILES: CNC(=O)Nc1ccc(C(O)CN2CCN(C(=O)C=Cc3cc(OC)c(OC)c(OC)c3)CC2)cc1 (stereo not shown) [Compound 95]
- change in vivo at 2.5 mg/kg (dogs; [6]): 21%
- change in vivo at 2.5 mg/kg (dogs; [7]): 27%
- change in vivo at 2.5 mg/kg (dogs; [8]): -20%
- change in vivo at 2.5 mg/kg (dogs; [9]): 8%
- Increase of the cardiac contractile force: duration (dogs; 2.5 mg/kg/i.v.): 10 mn
- LD50 ([1]; iv): > 200 mg/kg

SMILES: COc1cc(C=CC(=O)N2CCN(CCc3cccc(O)c3)CC2)cc(OC)c1OC [Compound 3]
- change in vivo at 0.625 mg/kg (dogs; [2]): 47%
- change in vivo at 0.625 mg/kg (dogs; [3]): 26%
- change in vivo at 0.625 mg/kg (dogs; [4]): -9%
- change in vivo at 0.625 mg/kg (dogs; [5]): 0%
- change in vivo at 2.5 mg/kg (dogs; [6]): 62%
- change in vivo at 2.5 mg/kg (dogs; [7]): 62%
- change in vivo at 2.5 mg/kg (dogs; [8]): -36%
- change in vivo at 2.5 mg/kg (dogs; [9]): 7%
- Increase of the cardiac contractile force: duration (dogs; 0.625 mg/kg/i.v.): 30 mn
- Increase of the coronary flow: duration (dogs; 0.625 mg/kg/i.v.): 5 mn
- Variation of the average arterial pressure: duration (dogs; 2.5 mg/kg/i.v.): > 30 mn
- LD50 ([1]; iv): > 200 mg/kg

SMILES: CNC(=O)Nc1ccc(CCN2CCN(C(=O)C=Cc3cc(OC)c(OC)c(OC)c3)CC2)cc1 [Compound 54]
- change in vivo at 2.5 mg/kg (dogs; [6]): 48%
- change in vivo at 2.5 mg/kg (dogs; [7]): 181%
- change in vivo at 2.5 mg/kg (dogs; [8]): -9%
- change in vivo at 2.5 mg/kg (dogs; [9]): 4%
- LD50 ([1]; iv): > 200 mg/kg

SMILES: COc1cc(C=CC(=O)N2CCN(CC(=O)c3ccc4ccccc4c3)CC2)cc(OC)c1OC [Compound 62]
- change in vivo at 2.5 mg/kg (dogs; [6]): 43%
- change in vivo at 2.5 mg/kg (dogs; [8]): -14%
- change in vivo at 2.5 mg/kg (dogs; [9]): 4%
- Increase of the cardiac contractile force: duration (dogs; 2.5 mg/kg/i.v.): > 30 mn
- Variation of the average arterial pressure: duration (dogs; 2.5 mg/kg/i.v.): 10 mn
- Variation of the cardiac frequency: duration (dogs; 2.5 mg/kg/i.v.): 5 mn
- LD50 ([1]; iv): 45 mg/kg

SMILES: COc1cc(C=CC(=O)N2CCN(Cc3ccc(NC(C)=O)cc3)CC2)cc(OC)c1OC [Compound 41]
- change in vivo at 2.5 mg/kg (dogs; [6]): 35%
- change in vivo at 2.5 mg/kg (dogs; [8]): -36%
- change in vivo at 2.5 mg/kg (dogs; [9]): -16%
- LD50 ([1]; iv): > 200 mg/kg

SMILES: COc1ccc(OC)c(C(=O)CN2CCN(C(=O)C=Cc3cc(OC)c(OC)c(OC)c3)CC2)c1 [Compound 70]
- change in vivo at 2.5 mg/kg (dogs; [6]): 50%
- change in vivo at 2.5 mg/kg (dogs; [7]): 27%
- change in vivo at 2.5 mg/kg (dogs; [8]): -21%
- change in vivo at 2.5 mg/kg (dogs; [9]): 5%
- LD50 ([1]; iv): 168 mg/kg

SMILES: COc1ccc(OC)c(C(O)CN2CCN(C(=O)C=Cc3cc(OC)c(OC)c(OC)c3)CC2)c1 (stereo not shown) [Compound 90]
- change in vivo at 2.5 mg/kg (dogs; [6]): 42%
- change in vivo at 2.5 mg/kg (dogs; [7]): 15%
- change in vivo at 2.5 mg/kg (dogs; [8]): -11%
- change in vivo at 2.5 mg/kg (dogs; [9]): 0%
- mortality [1, 10]: 80%

SMILES: COc1ccc(CN2CCN(C(=O)C=Cc3cc(OC)c(OC)c(OC)c3)CC2)cc1OC [Compound 2]
- change in vivo at 0.625 mg/kg (dogs; [2]): 71%
- change in vivo at 0.625 mg/kg (dogs; [3]): 93%
- change in vivo at 0.625 mg/kg (dogs; [4]): -12%
- change in vivo at 0.625 mg/kg (dogs; [5]): 6%
- change in vivo at 2.5 mg/kg (dogs; [7]): 76 to 398%
- change in vivo at 2.5 mg/kg (dogs; [8]): -25%
- change in vivo at 2.5 mg/kg (dogs; [9]): 8%
- Increase of the coronary flow: duration (dogs; 0.625 mg/kg/i.v.): < 20 mn
- Variation of the cardiac frequency: duration (dogs; 0.625 mg/kg/i.v.): < 5 mn
- Increase of the cardiac contractile force (dogs; 2.5 mg/kg/i.v.): +58 to
- Increase of the cardiac contractile force: duration (dogs; 2.5 mg/kg/i.v.): > 308 mn
- Increase of the coronary flow: duration (dogs; 2.5 mg/kg/i.v.): > 30 mn
- LD50 ([1]; iv): 105 mg/kg

SMILES: COc1cc(C=CC(=O)N2CCN(CCc3c[nH]c4ccccc34)CC2)cc(OC)c1OC [Compound 105]
- change in vivo at 2.5 mg/kg (dogs; [6]): 17%
- change in vivo at 2.5 mg/kg (dogs; [7]): 55%
- change in vivo at 2.5 mg/kg (dogs; [8]): -34%
- change in vivo at 2.5 mg/kg (dogs; [9]): 0%
- Variation of the average arterial pressure: duration (dogs; 2.5 mg/kg/i.v.): > 30 mn
- LD50 ([1]; iv): > 200 mg/kg

SMILES: COc1ccc(CC(O)CN2CCN(C(=O)C=Cc3cc(OC)c(OC)c(OC)c3)CC2)cc1OC (stereo not shown) [Compound 102, 3-[4-(3,4,5-trimethoxycinnamoyl) 1-piperazinyl]1-(3,4-dimethoxy)phenyl 2-propanol hydrochloride hydrate]
- change in vivo at 2.5 mg/kg (dogs; [6]): 13%
- change in vivo at 2.5 mg/kg (dogs; [7]): 34%
- change in vivo at 2.5 mg/kg (dogs; [8]): -26%
- change in vivo at 2.5 mg/kg (dogs; [9]): -4%
- Increase of the cardiac contractile force: duration (dogs; 2.5 mg/kg/i.v.): 10 mn
- Variation of the average arterial pressure: duration (dogs; 2.5 mg/kg/i.v.): > 30 mn
- LD50 ([1]; iv): > 200 mg/kg

SMILES: COc1cc(C=CC(=O)N2CCN(C3CCc4cc(O)c(O)cc4C3)CC2)cc(OC)c1OC (stereo not shown) [Compound 108, 2-[4-(3,4,5-trimethoxycinnamoyl) 1-piperazinyl] 1,2,3,4-tetrahydro 6,7-dihydroxy naphthyl hydrate]
- change in vivo at 2.5 mg/kg (dogs; [6]): 44%
- change in vivo at 2.5 mg/kg (dogs; [7]): 29%
- change in vivo at 2.5 mg/kg (dogs; [8]): -20%
- change in vivo at 2.5 mg/kg (dogs; [9]): 3%
- Variation of the average arterial pressure: duration (dogs; 2.5 mg/kg/i.v.): > 30 mn
- mortality ([1]; iv, at 200 mg/kg, read-out: LD 50 column: percentage in parentheses): 20%
- LD50 ([1]; iv): 200 mg/kg

SMILES: COc1cc(C=CC(=O)N2CCN(CC(=O)c3ccc(OC)c4c3OCCO4)CC2)cc(OC)c1OC [Compound 10]
- change in vivo at 0.625 mg/kg (dogs; [2]): 9%
- change in vivo at 0.625 mg/kg (dogs; [3]): 39%
- change in vivo at 0.625 mg/kg (dogs; [4]): -7%
- change in vivo at 0.625 mg/kg (dogs; [5]): 2%
- change in vivo at 2.5 mg/kg (dogs; [6]): 53%
- change in vivo at 2.5 mg/kg (dogs; [7]): 46%
- change in vivo at 2.5 mg/kg (dogs; [8]): -16%
- change in vivo at 2.5 mg/kg (dogs; [9]): 12%
- Increase of the cardiac contractile force: duration (dogs; 0.625 mg/kg/i.v.): < 10 mn
- Variation of the average arterial pressure: duration (dogs; 0.625 mg/kg/i.v.): < 5 mn
- Variation of the cardiac frequency: duration (dogs; 0.625 mg/kg/i.v.): < 5 mn
- Increase of the cardiac contractile force: duration (dogs; 2.5 mg/kg/i.v.): 10 mn
- Variation of the average arterial pressure: duration (dogs; 2.5 mg/kg/i.v.): > 30 mn
- Variation of the cardiac frequency: duration (dogs; 2.5 mg/kg/i.v.): > 30 mn
- LD50 ([1]; iv): 180 mg/kg
